From US9249125B2, “Pyrazole derivatives as p38 MAP inhibitors” (RESPIVERT LIMITED, priority 2012, dated 2016)

Legend:
[1] = tested on: LPS-induced TNFα release in d-U937 cells; assay: LPS-induced TNFα release in d-U937 cells; format: cell-based; details: Homo sapiens, dU937, relative to 10 μg/mL BIRB796, read-out: LPS Induced Release of Cytokine in d-937 Cells TNFα REC50
Method: (§1) U937 cells, a human monocytic cell line, are differentiated into macrophage-type cells by incubation with PMA (100 ng/mL) for 48 to 72 hr. Cells are pre-incubated with final concentrations of test compound for 2 hr and are then stimulated with LPS (0.1 μg/mL) (from E. coli: O111:B4, Sigma) for 4 hr. The supernatant is collected for determination of TNFα and IL-8 concentrations by sandwich ELISA (Duo-set, R&D systems). […] The relative 50% effective concentration (REC50) is determined from the resultant concentration-response curve. The inhibition of IL-8 production is calculated at each concentration of test compound by comparison with vehicle control. […] (b) LPS-Induced TNFα/IL-8 Release in PBMC Cells

p38 MAPKα = p38 MAPKα (Homo sapiens (Human), UniProt Q16539); assay: p38 MAPKα enzyme inhibition (FRET, Z-LYTE); format: biochemical
p38 MAPKα, sequence (Q16539 whole entry): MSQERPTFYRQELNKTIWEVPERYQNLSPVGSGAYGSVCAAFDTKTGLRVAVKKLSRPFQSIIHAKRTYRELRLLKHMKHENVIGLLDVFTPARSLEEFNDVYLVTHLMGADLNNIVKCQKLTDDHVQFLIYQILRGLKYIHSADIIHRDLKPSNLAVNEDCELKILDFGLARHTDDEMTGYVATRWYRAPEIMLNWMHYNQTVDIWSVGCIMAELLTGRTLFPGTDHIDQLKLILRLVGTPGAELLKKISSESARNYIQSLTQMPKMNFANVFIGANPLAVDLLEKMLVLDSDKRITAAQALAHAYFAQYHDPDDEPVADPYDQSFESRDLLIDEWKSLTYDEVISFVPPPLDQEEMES
Method: (§2) The enzyme inhibitory activities of compounds disclosed herein are determined by FRET using synthetic peptides labelled with both donor and acceptor fluorophores (Z-LYTE, Invitrogen Ltd., Paisley, UK).
The inhibitory activities of test compounds against the p38 MAPKα isoform (MAPK14: Invitrogen), are evaluated indirectly by determining the level of activation/phosphorylation of the down-stream molecule, MAPKAP-K2. The p38 MAPKα protein (80 ng/mL, 2.5 μL) is mixed with the test compound (2.5 μL of either 4 μg/mL, 0.4 μg/mL, 0.04 μg/mL or 0.004 μg/mL) for 2 hr at RT. […] The mixture is incubated for 1 hr at RT. Development reagent (protease, 5 μL) is added for 1 hr prior to detection in a fluorescence microplate reader (Varioskan® Flash, ThermoFisher Scientific).
(§3) In all cases, the site-specific protease cleaves non-phosphorylated peptide only and eliminates the FRET signal. Phosphorylation levels of each reaction are calculated using the ratio of coumarin emission (donor) over fluorescein emission (acceptor), for which low ratios indicate high phosphorylation and high ratios indicate low phosphorylation levels.

Syk = Syk (Homo sapiens (Human), UniProt P43405); assay: Syk enzyme inhibition (FRET, Z-LYTE); format: biochemical
Method: as §2
(§4) The relevant enzyme (3000 ng/mL or 2000 ng/mL respectively, 2.5 μL) is incubated with the test compound (either 4 μg/mL, 0.4 μg/mL, 0.04 μg/mL, or 0.004 μg/mL, 2.5 μL each) for 2 hr at RT. The FRET peptides (8 μM, 2.5 μL), and appropriate ATP solutions (2.5 μL, 800 μM for c-Src, and 60 μM ATP for Syk) are then added to the enzymes/compound mixtures and incubated for 1 hr. Development reagent (protease, 5 μL) is added for 1 hr prior to detection in a fluorescence microplate reader (Varioskan® Flash, ThermoFisher Scientific).
as §3

d-U937 cells = assay: Cell viability: MTT assay; format: cell-based, human; details: 1 μg/mL
Method: Differentiated U937 cells are pre-incubated with each test compound (final concentration 1 μg/mL or 10 μg/mL in 200 μL media indicated below) under two protocols: the first for 4 hr in 5% FCS RPMI1640 media and the second in 10% FCS RPMI1640 media for 24 h. The supernatant is replaced with new media (200 μL) and MTT stock solution (10 μL, 5 mg/mL) is added to each well. After incubation for 1 hr the media are removed, DMSO (200 μL) is added to each well and the plates are shaken lightly for 1 hr prior to reading the absorbance at 550 nm. The percentage loss of cell viability is calculated for each well relative to vehicle (0.5% DMSO) treatment. Consequently an apparent increase in cell viability for drug treatment relative to vehicle is tabulated as a negative percentage.

cSrc = cSrc (Homo sapiens (Human), UniProt P12931); assay: c-Src enzyme inhibition (FRET, Z-LYTE); format: biochemical
cSrc, sequence (P12931 whole entry, looked up): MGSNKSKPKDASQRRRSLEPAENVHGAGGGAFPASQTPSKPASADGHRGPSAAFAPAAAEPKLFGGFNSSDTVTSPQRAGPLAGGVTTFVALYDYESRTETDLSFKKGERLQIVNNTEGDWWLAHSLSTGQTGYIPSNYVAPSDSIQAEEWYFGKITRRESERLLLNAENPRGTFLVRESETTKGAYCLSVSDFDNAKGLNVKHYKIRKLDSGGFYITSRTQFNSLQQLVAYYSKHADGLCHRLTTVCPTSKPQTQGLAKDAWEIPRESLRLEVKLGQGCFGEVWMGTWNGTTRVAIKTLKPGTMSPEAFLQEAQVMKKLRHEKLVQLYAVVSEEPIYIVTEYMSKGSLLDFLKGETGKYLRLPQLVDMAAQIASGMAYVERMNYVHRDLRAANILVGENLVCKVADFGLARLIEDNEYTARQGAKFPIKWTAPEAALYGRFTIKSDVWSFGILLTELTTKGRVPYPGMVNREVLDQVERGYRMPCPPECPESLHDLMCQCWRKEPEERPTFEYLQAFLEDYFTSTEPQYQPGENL
Method: as §2, §4, §3

[2] = tested on: Poly I:C-induced ICAM-1 expression in BEAS2B cells; assay: Poly I:C-induced ICAM-1 expression in BEAS2B cells; format: cell-based; details: Homo sapiens, BEAS-2B, read-out: Poly IC induced ICAM1 in BEAS2B IC50
Method: Poly I:C is used in these studies as a simple, RNA virus mimic. Poly I:C-Oligofectamine mixture (1 μg/mL Poly I:C, ±2% Oligofectamine, 25 uL) (Invivogen Ltd., San Diego, Calif., and Invitrogen, Carlsbad, Calif., respectively) is transfected into BEAS2B cells (human bronchial epithelial cells, ATCC). Cells are pre-incubated with final concentrations of test compounds for 2 hr and the level of ICAM1 expression on the cell surface is determined by cell-based ELISA. At a time point 18 hr after poly I:C transfection, cells are fixed with 4% formaldehyde in PBS (100 μL) and then endogenous peroxidase is quenched by the addition of washing buffer (100 μL, 0.05% Tween in PBS: PBS-Tween) containing 0.1% sodium azide and 1% hydrogen peroxide. Cells are washed with wash-buffer (3×200 μL). and after blocking the wells with 5% milk in PBS-Tween (100 μL) for 1 hr, the cells are incubated with anti-human ICAM-1 antibody (50 μL) (Cell Signaling Technology, Danvers, Mass.) in 1% BSA PBS overnight at 4° C.
The cells are washed with PBS-Tween (3×200 μL) and incubated with the secondary antibody (100 μL) (HRP-conjugated anti-rabbit IgG, Dako Ltd., Glostrup, Denmark). The cells are then incubated with of substrate (50 μL) for 2-20 min, followed by the addition of stop solution (50 μL, 1N H2SO4). The ICAM-1 signal is detected by reading and reading the absorbance at 450 nm against a reference wavelength of 655 nm using a spectrophotometer. The cells are then washed with PBS-Tween (3×200 μL) and total cell numbers in each well are determined by reading absorbance at 595 nm after Crystal Violet staining (50 μL of a 2% solution in PBS) and elution by 1% SDS solution (100 μL) in distilled water. The measured OD 450-655 readings are corrected for cell number by dividing with the OD595 reading in each well.

GSK3α = GSK3α (Homo sapiens (Human), UniProt P49840); assay: GSK 3α enzyme inhibition (FRET, Z-LYTE); format: biochemical
GSK3α, sequence (P49840 whole entry): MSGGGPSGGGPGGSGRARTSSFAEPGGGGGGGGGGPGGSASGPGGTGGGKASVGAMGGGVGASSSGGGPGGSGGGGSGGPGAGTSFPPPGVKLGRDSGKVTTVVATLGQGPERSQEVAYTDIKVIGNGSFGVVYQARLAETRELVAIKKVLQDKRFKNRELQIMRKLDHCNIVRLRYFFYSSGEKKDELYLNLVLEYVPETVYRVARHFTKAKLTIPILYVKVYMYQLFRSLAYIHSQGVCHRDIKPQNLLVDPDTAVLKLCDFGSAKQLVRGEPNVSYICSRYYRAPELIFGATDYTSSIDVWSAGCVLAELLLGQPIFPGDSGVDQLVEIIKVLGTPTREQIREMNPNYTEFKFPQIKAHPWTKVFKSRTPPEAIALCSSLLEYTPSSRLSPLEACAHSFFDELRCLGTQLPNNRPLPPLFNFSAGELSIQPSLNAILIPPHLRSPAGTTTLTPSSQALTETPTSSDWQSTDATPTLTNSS
Method: as §2
The inhibitory activities of compounds of the invention against the GSK 3α enzyme isoform (Invitrogen), are evaluated by determining the level of activation/phosphorylation of the target peptide. The GSK3-α protein (500 ng/mL, 2.5 μL) is mixed with the test compound (2.5 μL at either 4 μg/mL, 0.4 μg/mL, 0.04 μg/mL, or 0.004 μg/mL) for 2 hr at RT. The FRET peptide (8 μM, 2.5 μL), which is a phosphorylation target for GSK3α, and ATP (40 μM, 2.5 μL) are then added to the enzyme/compound mixture and the resulting mixture incubated for 1 hr. Development reagent (protease, 5 μL) is added for 1 hr prior to detection in a fluorescence microplate reader (Varioskan® Flash, ThermoFisher Scientific).
as §3

[3] = tested on: LPS-induced IL-8 release in d-U937 cells; assay: LPS-induced IL-8 release in d-U937 cells; format: cell-based; details: Homo sapiens, dU937, read-out: LPS Induced Release of Cytokine in d-937 Cells IL-8 IC50
Method: as §1

Row | SMILES | EC50 [1] [nM] | IC50 (p38 MAPKα) [nM] | IC50 (Syk) [nM] | MTT Assay Cell viability at time point in d-U937 cells 4 h (d-U937 cells) | MTT Assay Cell viability at time point in d-U937 cells 24 h (d-U937 cells) | IC50 (cSrc) [nM] | IC50 [2] [nM] | IC50 (GSK3α) [nM] | IC50 [3] [nM]
1 | COc1ccc(-n2nc(C(C)(C)C)cc2NC(=O)Nc2ccc(Oc3ccnc(Nc4ccc5c(cnn5C)c4)n3)c3ccccc23)cc1 [Example 41, 1-(3-(tert-butyl)-1-(4-methoxyphenyl)-1H-pyrazol-5-yl)-3-(4-((2-((1-methyl-1H-indazol-5-yl)amino)pyrimidin-4-yl)oxy)naphthalen-1-yl)urea] | 1.6 | 128 | 81 | +ve (−ve and +ve indicate that the value is below and above respectively, the no significant effect threshold, defined as 30% inhibition at 1 μg/mL at the time point indicated.) | −ve (−ve and +ve indicate that the value is below and above respectively, the no significant effect threshold, defined as 30% inhibition at 1 μg/mL at the time point indicated.) | 16 | 1.9 | > 15300 | 123
2 | COc1ccc(-n2nc(C(C)C)cc2NC(=O)Nc2ccc(Oc3ccnc(Nc4ccc5[nH]nc(C(=O)N(C)C)c5c4)n3)c3ccccc23)cc1 [Example 46, 5-((4-((4-(3-(3-isopropyl-1-(4-methoxyphenyl)-1H-pyrazol-5-yl)ureido)naphthalen-1-yl)oxy)pyrimidin-2-yl)amino)-N,N-dimethyl-1H-indazole-3-carboxamide] | 1.8 | 12 | 2 | −ve (−ve and +ve indicate that the value is below and above respectively, the no significant effect threshold, defined as 30% inhibition at 1 μg/mL at the time point indicated.) | −ve (−ve and +ve indicate that the value is below and above respectively, the no significant effect threshold, defined as 30% inhibition at 1 μg/mL at the time point indicated.) | < 1 | 2.3 | 908 | 21.1
3 | CC(C)(C)c1cc(NC(=O)Nc2ccc(Oc3ccnc(Nc4ccc5c(c4)NC(=O)C5)n3)c3ccccc23)n(-c2cccc(OCCN3CCOCC3)c2)n1 [Example 50, 1-(3-(tert-butyl)-1-(3-(2-morpholinoethoxy)phenyl)-1H-pyrazol-5-yl)-3-(4-((2-((2-oxoindolin-6-yl)amino)pyrimidin-4-yl)oxy)naphthalen-1-yl)urea] | 16.4 | 31 | 2 | −ve (−ve and +ve indicate that the value is below and above respectively, the no significant effect threshold, defined as 30% inhibition at 1 μg/mL at the time point indicated.) | −ve (−ve and +ve indicate that the value is below and above respectively, the no significant effect threshold, defined as 30% inhibition at 1 μg/mL at the time point indicated.) | < 1 | 2.7 | 1170 | 34
4 | Cc1ccc(-n2nc(C(C)(C)C)cc2NC(=O)Nc2ccc(Oc3ccnc(Nc4ccc5c(cnn5C)c4)n3)c3ccccc23)cc1 [Example 26, 1-(3-(tert-butyl)-1-(p-tolyl)-1H-pyrazol-5-yl)-3-(4-((2-((1-methyl-1H-indazol-5-yl)amino)pyrimidin-4-yl)oxy)naphthalen-1-yl)urea] | 2.2 | 145 | 180 | −ve (−ve and +ve indicate that the value is below and above respectively, the no significant effect threshold, defined as 30% inhibition at 1 μg/mL at the time point indicated.) | −ve (−ve and +ve indicate that the value is below and above respectively, the no significant effect threshold, defined as 30% inhibition at 1 μg/mL at the time point indicated.) | 12 | 2.3 | > 15700 | 2.2
5 | Cc1ccc(-n2nc(C(C)(C)C)cc2NC(=O)Nc2ccc(Oc3ccnc(Nc4cccc5[nH]ncc45)n3)c3ccccc23)cc1 [Example 21] | 1.7 |  | 182 | −ve (−ve and +ve indicate that the value is below and above respectively, the no significant effect threshold, defined as 30% inhibition at 1 μg/mL at the time point indicated.) | −ve (−ve and +ve indicate that the value is below and above respectively, the no significant effect threshold, defined as 30% inhibition at 1 μg/mL at the time point indicated.) |  | 3 | > 16000 | 5
6 | Cc1ccc(-n2nc(C(C)(C)C)cc2NC(=O)Nc2ccc(Oc3ccnc(Nc4cnc5[nH]ccc5c4)n3)c3ccccc23)cc1 [Example 32, 1-(4-((2-((1H-pyrrolo[2,3-b]pyridin-5-yl)amino)pyrimidin-4-yl)oxy)naphthalen-1-yl)-3-(3-(tert-butyl)-1-(p-tolyl)-1H-pyrazol-5-yl)urea] | 1.7 | 79 |  | −ve (−ve and +ve indicate that the value is below and above respectively, the no significant effect threshold, defined as 30% inhibition at 1 μg/mL at the time point indicated.) | −ve (−ve and +ve indicate that the value is below and above respectively, the no significant effect threshold, defined as 30% inhibition at 1 μg/mL at the time point indicated.) |  |  | > 1600 | 0.6
